One test deals with passive cutaneous anaphylactic reaction. The experiment in a line: inhibition of the passive cutaneous anaphylactic (PCA) reaction in rats induced by reaginic antibodies to egg albumin. In kind it is in vivo. Conditions: Rattus norvegicus, iv, 0.75 mg/kg, intravenously immediately before antigen. As for the experimental part:
Diethylcarbamazin, i.e. 1-diethylcarbamoyl-4-methylpiperazine, was used as a comparison compound. Specifically, tests were run as follows:
Serum containing reaginic (IgE-like) antibody to egg albumin was prepared by injecting rats intramuscularly with 0.1 ml of a solution of the antigen (10 mg/ml) in saline together with 0.5 ml of Bordetella pertussis vaccine (Behring; 2×10^10 organisms/ml). 9-14 Days later the animals were bled from the abdominal aorta; the serum was pooled and stored at -20° C. until required. The titer of the serum, i.e. the highest dilution inducing passive cutaneous anaphylaxis (PCA) in the rat following a 48-hour latent period, was between 1:8 and 1:32. For use in these experiments the serum was diluted 1:24.
The animals were anesthetized with 2,2-dichloro-1,1-difluoroethyl-methyl ether, sold under the trademark Penthrane, and were sensitized by injecting 0.1 ml of the antiserum into the shaved abdominal flanks. After 48 hours for reaginic PCA, the animals were given an intravenous injection of 1 ml of saline solution containing 0.5% by weight of egg albumin and 0.25% by weight of Evans Blue.
After having killed and exsanguinated the animals, the size in square millimeters and the intensity, in arbitary scores, of the resulting blue spot were determined. The product of these two parameters was used to determine the degree of the reaction and the degree of reaction with no active material was taken as the standard against which to measure % inhibition of the anaphylactic reaction.
6 Animals were used per dose level and for control.
The test material was injected intravenously immediately before the antigen, using a solution in water containing 0.5% HCl and 2% of dimethylformamide. For comparative purposes there was also tested diethylcarbamoyl-4-methylpiperazine sold under the tradename Diethylcarbamazin. The volumes of the injections were varied to give the indicated dosage of the active material. The results obtained were as follows:
PCA Reaction in Rats Induced by Reaginic Antibodies
(Ovalbumin 2×cryst, and Bord. pertussis 2×10^10) Active material applied intravenously immediately before antigen.
For the compound `O=C(NC1CCN(CCCn2cnc3c(NCCO)ncnc32)CC1)c1ccccc1` [Example 2j, N^6-(2-Hydroxyethyl)-9-[3-(4-benzamido-piperidino)-propyl] adenine], the inhibition in vivo at 0.75 mg/kg is 44%.

In the case of `CCCCNc1ncnc2c1ncn2CCCN1CCC(NC(=O)c2ccccc2)CC1` [Example 2k, N^6-n-Butyl-9-[3-(4-Benzamido-piperidino)-propyl]-adenine], 0.75 mg/kg produced 41% inhibition in vivo.

Staying with this test, now noted: Rattus norvegicus, iv, 1.5 mg/kg, intravenously immediately before antigen.
`Cc1ccccc1C(=O)NC1CCN(CCCn2cnc3c(N)ncnc32)CC1` [Example 2e, 9-{3-[4-(2-Methyl-benzamido)-piperidino]-propyl}-adenine]: 1.5 mg/kg produced 39% inhibition in vivo.

In turn, `Nc1ncnc2c1ncn2CCCN1CCC(NC(=O)c2ccc(Cl)cc2)CC1` [Example 4a, 9-{3-[4-(4-Chlorobenzamido)-piperidino]-propyl}-adenine] had an inhibition in vivo at 1.5 mg/kg of 80%.

Turning to `O=C(NC1CCN(CCCn2cnc3c(N4CCCCC4)ncnc32)CC1)c1ccccc1` [Example 2m, 6-Piperidino-9-[3-(4-benzamido-piperidino)-propyl]-purine], the inhibition in vivo at 1.5 mg/kg was found to be 36%.

As for `Cc1ccc(C(=O)NC2CCN(CCCn3cnc4c(N)ncnc43)CC2)cc1` [Example 2f, 9-{-[4-(4-Methyl-benzamido)-piperidio]-propyl}-adenine], the inhibition in vivo at 1.5 mg/kg came to 74%.

Consider `Nc1ncnc2c1ncn2CCCN1CCC(NC(=O)c2ccco2)CC1` [Example 4f, 9-{3-[4-(Furan-2-carbonylamido)-piperidino]-propyol}-adenine], for which at 1.5 mg/kg the inhibition in vivo was 44%.

With `CN(C)c1ncnc2c1ncn2CCCN1CCC(NC(=O)c2ccccc2)CC1` [Example 2l, 6-Dimethylamino-9-[3-(4-benzamido-piperidino)-propyl]-purine], the inhibition in vivo at 1.5 mg/kg worked out at 43%.

Regarding `Nc1ncnc2c1ncn2CCCN1CCC(NC(=O)Cc2ccccc2)CC1` [Example 4d, 9-{3-[4-(Phenyl-acetamido)-piperidino]-propyl}-adenine], testing at 1.5 mg/kg gave an inhibition in vivo of 30%.

As to `Nc1ncnc2c1ncn2CCCN1CCC(NC(=O)c2ccc(F)cc2)CC1` [Example 2b, 9-{3-[4-(4-Fluorobenzamido)-piperidino]-propyl}-adenine], 1.5 mg/kg produced 65% inhibition in vivo.

Still in this test, the particulars now being: Rattus norvegicus, iv, 60.0 mg/kg, intravenously immediately before antigen.
As to `CCN(CC)C(=O)N1CCN(C)CC1` [Diethylcarbamazin, 1-diethylcarbamoyl-4-methylpiperazine, reference compound], 60 mg/kg produced 58% inhibition in vivo.

By inhibition in vivo is commonly meant the share of the control response that was lost under treatment. High values mean a strong effect, low ones a weak effect.

These data come from US4212866A, “Pharmaceutically active derivatives of 9-[3-(4-amino-piperidino)-propyl]-adenines” (Boehringer Mannheim GmbH, priority 1978, dated 1980).
